US20240174690A1, “ANNULATED 2-AMINO-3-CYANO THIOPHENES AND DERIVATIVES FOR THE TREATMENT OF CANCER” (BOEHRINGER INGELHEIM INTERNATIONAL GMBH, priority 2021, published 2024)
Read-outs that look alike come from different tables or passages of the source.

Tests used:
[1] = Plasma protein binding assay (PPB), equilibrium dialysis, 10% FCS in PBS; format: in vitro ADME; conditions: for fraction unbound: bovine, read-out: PPB 10% FCS (% fu)
Summary of the method: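 Test compound (1-10 μmol/L) in 10% FCS in PBS was dialysed for 3-5 h at 37° C versus PBS ± dextran across a semipermeable membrane. LC-MS of both compartments after protein precipitation gave Cserum and Cbuffer, from which the unbound fraction fu was derived.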

[2] = Metabolic (microsomal) stability assay, human liver microsomes (HLM); format: in vitro ADME; conditions: predicted clearance as percent of liver blood flow, 1 μM
Summary of the method: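 LC-MS/MS tracked parent disappearance at 0, 5, 15, 30 and 60 min in NADPH-initiated incubations with 1 mg/mL human microsomal protein and 1 μM compound at 37°C, pH 7.5. First-order fits gave intrinsic clearance, which was scaled up and reported as % QH. NADPH-free controls were also run.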

SK-CO-1 cells = test: SK-CO-1 CTG proliferation assay (120 h) (CRC, G12V); format: cell-based; conditions: SK-CO-1 cells (CRC, G12V), CTG 120 h
Summary of the method: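 Compound exposure lasted 120 h in KRAS G12V SK-CO-1 cells seeded overnight at 500 cells/well in 10% FCS EMEM. CellTiter-Glo RLU normalised to DMSO wells gave percent viability, and a four-parameter model fit yielded IC50.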

AsPC-1 cells = test: AsPC-1 CTG proliferation assay (120 h) (pancreatic cancer, G12D); format: cell-based
Summary of the method: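 CellTiter-Glo luminescence, normalised to DMSO wells, measured viability after 120 h compound exposure. Cells were AsPC-1 pancreatic cancer (G12D) plated at 2000 per well in RPMI/10% FCS the day before dosing. IC50 derived by four-parameter regression.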

Row | Compound | PPB 10% FCS (% fu) ([1]; fraction unbound) | HLM QH [2] | IC50 (SK-CO-1 cells) | IC50 (AsPC-1 cells) | fraction unbound [1] | IC50 (SK-CO-1 cells; Homo sapiens) | IC50 (AsPC-1 cells; Homo sapiens, ASPC1)
1 | C[C@H](Oc1cc(-n2ccc(C(=O)N[C@H]3CCOC3)n2)nc(-c2noc3c2CCC[C@@]32CCCc3sc(N)c(C#N)c32)n1)[C@@H]1CCCN1C [II-193] | 20 % fu | 31% | 3 nM | 176 nM | – | – | –
2 | C[C@H](Oc1cc(-n2ccc(C(=O)N[C@@H]3CCOC3)n2)nc(-c2noc3c2CCC[C@@]32CCCc3sc(N)c(C#N)c32)n1)[C@@H]1CCCN1C [II-192] | – | 30% | – | – | 0.24 | 4 nM | 305 nM
3 | CO[C@H]1CCN(C)[C@@H]1[C@H](C)Oc1cc(N2CCNC3(CC3)C2)nc(-c2noc3c2CCC[C@@]32CCCc3sc(N)c(C#N)c32)n1 [II-184] | – | 60% | – | – | 0.1 | 249 nM | 8 nM
4 | C[C@H](Oc1cc(-n2ccc(C(=O)N(C)C3COC3)n2)nc(-c2noc3c2CCC[C@@]32CCCc3sc(N)c(C#N)c32)n1)[C@@H]1CCCN1C [II-194] | – | 30% | – | – | 0.08 | 11 nM | 411 nM
5 | C[C@H](Oc1cc(-c2ccn(C[C@H]3CCOC3)n2)nc(-c2noc3c2CCC[C@@]32CCCc3sc(N)c(C#N)c32)n1)[C@@H]1CCCN1C [II-129] | – | <24% | – | – | 0.23 | 66 nM | 2080 nM
6 | CO[C@H]1CCN(C)[C@@H]1[C@H](C)Oc1cc(-n2ccc(C(=O)N[C@H]3CCOC3)n2)nc(-c2noc3c2CCC[C@@]32CCCc3sc(N)c(C#N)c32)n1 [II-198] | – | 63% | – | – | 0.06 | 3 nM | 143 nM
7 | C[C@H](Oc1nc(-c2noc3c2CCC[C@@]32CCCc3sc(N)c(C#N)c32)nc(N2CCNC3(CC3)C2)c1F)[C@@H]1C[C@@H](F)CN1C [II-155] | – | 70% | – | – | 0.04 | 263 nM | 11 nM
8 | C[C@H](Oc1cc(-n2ccc(-c3cn([C@@H]4CCOC4)nn3)n2)nc(-c2noc3c2CCC[C@@]32CCCc3sc(N)c(C#N)c32)n1)[C@@H]1CCCN1C [II-211] | – | <24% | – | – | 0.02 | 4 nM | 297 nM
9 | C[C@H](Oc1cc(-n2cnc(C(=O)N(C)C)c2)nc(-c2noc3c2CCC[C@@]32CCCc3sc(N)c(C#N)c32)n1)[C@@H]1CCCN1C [II-126] | – | 25% | – | – | 0.38 | 137 nM | 10200 nM
10 | C[C@H](Oc1cc(N2CCNC3(COC3)C2)nc(-c2noc3c2CCC[C@@]32CCCc3sc(N)c(C#N)c32)n1)[C@@H]1C[C@@H](F)CN1C [II-150] | – | 64% | – | – | 0.13 | 325 nM | 27 nM
11 | C[C@H](Oc1cc(-c2ccn(C)n2)nc(-c2noc3c2CCC[C@@]32CCCc3sc(N)c(C#N)c32)n1)[C@@H]1C[C@H](F)CN1C [II-144] | – | 75% | – | – | 0.11 | 130 nM | 7100 nM
12 | C[C@H](Oc1cc(-n2cc3c(n2)CNC3)nc(-c2noc3c2CCC[C@@]32CCCc3sc(N)c(C#N)c32)n1)[C@@H]1CCCN1C [II-168] | – | 62% | – | – | 0.47 | 154 nM | 778 nM
13 | C[C@H](Oc1cc(-n2nccc2-c2ccncc2)nc(-c2noc3c2CCC[C@@]32CCCc3sc(N)c(C#N)c32)n1)[C@@H]1CCCN1C [II-131] | – | <24% | – | – | 0.01 | 90 nM | 3520 nM
14 | C[C@H](Oc1nc(-c2noc3c2CCC[C@@]32CCCc3sc(N)c(C#N)c32)nc(N2C[C@H](C)NC3(CC3)C2)c1F)[C@@H]1C[C@@H](F)CN1C [II-157] | – | 69% | – | – | 0.03 | 339 nM | 129 nM
15 | C[C@H](Oc1cc(-n2ccc(-c3cn(CC4(C)COC4)nn3)n2)nc(-c2noc3c2CCC[C@@]32CCCc3sc(N)c(C#N)c32)n1)[C@@H]1CCCN1C [II-213] | – | <24% | – | – | 0.02 | 7 nM | 275 nM
16 | C[C@H](Oc1cc(-n2cc(-c3cncs3)nn2)nc(-c2noc3c2CCC[C@@]32CCCc3sc(N)c(C#N)c32)n1)[C@@H]1CCCN1C [II-125] | – | <24% | – | – | 0.13 | 121 nM | 1370 nM
17 | C[C@H](Oc1cc(-n2cc3ccn([C@@H](C)c4ccccn4)c(=O)c3n2)nc(-c2noc3c2CCC[C@@]32CCCc3sc(N)c(C#N)c32)n1)[C@@H]1CCCN1C [II-205] | – | <24% | – | – | 0.06 | 31 nM | 1310 nM

Row | Compound | PPB 10% FCS (% fu) ([1]; fraction unbound) | HLM QH [2] | IC50 (SK-CO-1 cells) | IC50 (AsPC-1 cells) | fraction unbound [1] | IC50 (SK-CO-1 cells; Homo sapiens) | IC50 (AsPC-1 cells; Homo sapiens, ASPC1)
18 | C[C@H](Oc1nc(-c2noc3c2CCC[C@@]32CCCc3sc(N)c(C#N)c32)nc(N2CCNC3(CC3)C2)c1Cl)[C@@H]1C[C@@H](F)CN1C [II-156] | – | 65% | – | – | 0.04 | 390 nM | 86 nM
19 | CO[C@@H]1C[C@@H]([C@H](C)Oc2cc(N3CCN(C)C4(COC4)C3)nc(-c3noc4c3CCC[C@@]43CCCc4sc(N)c(C#N)c43)n2)N(C)C1 [II-153] | – | 58% | – | – | 0.14 | 872 nM | 577 nM
20 | CNC1CCN(c2cc(O[C@@H](C)[C@@H]3CCCN3C)nc(-c3noc4c3CCC[C@@]43CCCc4sc(N)c(C#N)c43)n2)CC1 [II-214] | – | <24% | – | – | 0.81 | 5350 nM | 3520 nM
21 | C[C@H](Oc1cc(N2C[C@H](C)N(C)[C@@H](C)C2)nc(-c2noc3c2CCC[C@@]32CCCc3sc(N)c(C#N)c32)n1)[C@@H]1CCCN1C [II-173] | – | <24% | – | – | 0.41 | 805 nM | 1210 nM
22 | C[C@H](Oc1cc(-n2cc3ccn(C4CCOCC4)c(=O)c3n2)nc(-c2noc3c2CCC[C@@]32CCCc3sc(N)c(C#N)c32)n1)[C@@H]1CCCN1C [II-206] | – | <24% | – | – | 0.05 | 11 nM | 194 nM
23 | C[C@H](O)Cn1ncc(-c2cc(O[C@@H](C)[C@@H]3CCCN3C)nc(-c3noc4c3CCC[C@@]43CCCc4sc(N)c(C#N)c43)n2)n1 [II-134] | – | 34% | – | – | 0.31 | 225 nM | 9670 nM
24 | C[C@H](Oc1cc(-n2cc3ccn([C@H]4CCOC4)c(=O)c3n2)nc(-c2noc3c2CCC[C@@]32CCCc3sc(N)c(C#N)c32)n1)[C@@H]1CCCN1C [II-202] | – | <24% | – | – | 0.05 | 6 nM | 380 nM
25 | CC(C)[C@@H]1CN(c2cc(O[C@@H](C)[C@@H]3CCCN3C)nc(-c3noc4c3CCC[C@@]43CCCc4sc(N)c(C#N)c43)n2)CCN1 [II-166] | – | <24% | – | – | 0.22 | 551 nM | 1280 nM
26 | C[C@H](Oc1cc(-n2cc3ccn(C[C@H]4CCOC4)c(=O)c3n2)nc(-c2noc3c2CCC[C@@]32CCCc3sc(N)c(C#N)c32)n1)[C@@H]1CCCN1C [II-204] | – | <24% | – | – | 0.03 | 14 nM | 508 nM
27 | C[C@H](Oc1cc(-n2ccc(-c3cnccn3)n2)nc(-c2noc3c2CCC[C@@]32CCCc3sc(N)c(C#N)c32)n1)[C@@H]1CCCN1C [II-130] | – | <24% | – | – | 0.03 | 29 nM | 1080 nM
28 | C[C@H](Oc1cc(-n2ccc(-c3cn(C4CCOCC4)nn3)n2)nc(-c2noc3c2CCC[C@@]32CCCc3sc(N)c(C#N)c32)n1)[C@@H]1CCCN1C [II-210] | – | <24% | – | – | 0.02 | 3 nM | 210 nM
29 | C[C@H](Oc1cc(-c2ccn([C@H]3CCOC3)n2)nc(-c2noc3c2CCC[C@@]32CCCc3sc(N)c(C#N)c32)n1)[C@@H]1CCCN1C [II-127] | – | <24% | – | – | 0.08 | 90 nM | 2760 nM
30 | C[C@@H]1CN(c2nc(-c3noc4c3CCC[C@@]43CCCc4sc(N)c(C#N)c43)nc(O[C@@H](C)[C@@H]3C[C@@H](F)CN3C)c2F)CC2(CC2)N1 [II-158] | – | 73% | – | – | 0.04 | 374 nM | 256 nM
31 | C[C@H](Oc1cc(-n2cc3c(n2)CN(C)C3)nc(-c2noc3c2CCC[C@@]32CCCc3sc(N)c(C#N)c32)n1)[C@@H]1CCCN1C [II-174] | – | 39% | – | – | 0.17 | 385 nM | 103 nM
32 | CO[C@H]1CCN(C)[C@@H]1[C@H](C)Oc1cc(N2CCN(C)C3(CC3)C2)nc(-c2noc3c2CCC[C@@]32CCCc3sc(N)c(C#N)c32)n1 [II-186] | – | 49% | – | – | 0.08 | 880 nM | 38 nM
33 | CO[C@H]1CCN(C)[C@@H]1[C@H](C)Oc1cc(-n2ccc(C(=O)N[C@@H]3CCOC3)n2)nc(-c2noc3c2CCC[C@@]32CCCc3sc(N)c(C#N)c32)n1 [II-197] | – | 69% | – | – | 0.04 | 4 nM | 226 nM
34 | C[C@H](Oc1cc(-c2ccn(Cc3ncco3)n2)nc(-c2noc3c2CCC[C@@]32CCCc3sc(N)c(C#N)c32)n1)[C@@H]1CCCN1C [II-128] | – | <24% | – | – | 0.06 | 47 nM | 2100 nM
